From US9745335B2 (Blirt S.A., priority 2012, dated 2017)
Converted amounts (≈) assume the structure as drawn. Where two headings read alike, the source gives them in different places.

Experiments:
[1] = tested on: LLC-PK1 cells; test: cytotoxic activity against mammalian cells in tissue culture (MTT); format: cell-based, pig
Experimental: (§1) All media contained 100 μg/ml of penicillin G and streptomycin. 24-wells microplates containing appropriate medium were inoculated with the cells in amount of 1.2×10^4 cells/well and allowed to stand overnight. Next, tested compounds as solution in dimethylsulfoxide (DMSO) were added in volume of 10 μl (serial 2× dilutions). To control well 10 μl of DMSO was added. Microplates with cell suspensions were incubated for 120 h at temperature 37° C. at atmosphere of 95%/5% CO2. After incubation, to all wells 200 μl of solution of 3-(4,5-dimethyltiazole-2-yl)-2,5-diphenylotetrazole bromide (MTT) in PBS (4 mg/ml) was added and plates were further incubated for 4 h at 37° C. Next, to dissolve crystals of formazane 1 ml of DMSO was added and absorption of solutions was measured at the wavelength λ=540 nm (A540), using a microplates reader (Victor^3, Perkin-Wallac). […] From these graphs IC50 values were read, that is concentration of tested compound in the presence at which A540 value is half of A540 value measured in the control sample.

[2] = tested on: HepG2 cells; test: as above; format: cell-based, human
Experimental: as §1

[3] = tested on: CCRF-CEM cells; test: as above; format: cell-based, human
Experimental: as §1

[4] = tested on: Human erythrocytes; test: hemotoxicity determination (hemolytic activity); format: cell-based
Experimental: The hemotoxicity determination was carried out by the serial dilutions method, according to the procedure described earlier (Slisz, M., et al., E., J Antibiot 57: 669-678 (2004). Human erythrocytes were suspended in the solution of saline to obtain a cell density of suspension 2×10^7/ml. Suitable amounts of diluted solutions of compounds were added to the cell suspension in tubes and were incubated at 37° C. for 30 minutes and then centrifuged (1700×g, 10 min, 4° C.). The concentration of hemoglobin in supernatant after centrifugation of erythrocytes suspension were determined by measuring the absorbance at wavelength λ=540 nm (A540). The maximum level of hemolysis was obtained after incubation of cells suspension in the presence of 0.1% Tritone X-100 (control sample). […] From these graphs, the EH50 values were read which are the interpolated concentrations of compound, for which the A540 value is exactly 50% of the A540 value measured for the control sample.

[5] = tested on: Candida lusitaniae DSM 70102; test: antifungal activity in vitro, serial dilution in RPMI 1640; format: cell-based
Experimental: (§2) For the determination of antifungal activity in vitro we used method of serial dilution in buffered medium RPMI 1640, pH 7.0, in a 96-wells microplates, according to the standard procedure (National Committee for Clinical Laboratory Standards. Reference method for broth dilution antifungal susceptibility testing of yeast, approved standard, 2nd ed. M27-A2 vol. 22 Wayne, Pa., 2002). The optical density of cells suspension was measured using a microplates reader (Victor^3, Perkin-Elmer) at the wavelength λ=531 nm (A531). On the basis of obtained results the diagrams of relation between A531 values and concentration of examined compound were made.

[6] = tested on: Candida tropicalis KKP 334; test: as above; format: cell-based
Experimental: as §2

[7] = tested on: Candida krusei DSM 6128; test: as above; format: cell-based
Experimental: as §2

[8] = tested on: Candida albicans ATCC 10231; test: as above; format: cell-based
Experimental: as §2

[9] = tested on: Saccharomyces cerevisiae ATCC 9763; test: as above; format: cell-based; conditions: RPMI 1640, pH 7.0; for Antifungal activity IC50: Saccharomyces cerevisiae ATCC 9763 (first head over MIC and IC50); for Antifungal activity MIC: Saccharomyces cerevisiae ATCC 9763
Experimental: as §2

[10] = tested on: Candida glabrata DSM 11226; test: as above; format: cell-based
Experimental: as §2

Compound | IC50 (cytotoxic activity) [1] | IC50 (cytotoxic activity) [2] | IC50 (cytotoxic activity) [3] | Hemotoxi EH50 [4] | Antifungal activity MIC [5] | Antifungal activity MIC [6] | Antifungal activity MIC [7] | Antifungal activity MIC [8] | Antifungal activity IC50 [9] | Antifungal activity MIC [9] | Antifungal activity MIC [10] | Hemotoxi EH50 ([4]; human erythrocytes, 37° C., 30 minutes) | IC50 (cytotoxic activity) ([1]; LLC-PK1, 120 h, MTT) | IC50 (cytotoxic activity) ([2]; HepG2, 120 h, MTT) | IC50 (cytotoxic activity) ([3]; CCRF-CEM, 120 h, MTT)
CCCN(CC1(O)OCC(O)C(O)C1O)C1C(O)C(C)OC(OC2C=CC=CC=CC=CC=CC=CC=CC(C)C(O)C(C)C(C)OC(=O)CC(O)CC(O)CCC(O)C(O)CC(O)CC3(O)CC(O)C(C(=O)O)C(C2)O3)C1O (stereo not shown) [Compound A16, N-fructosyl-N-n-propylamphotericin B] | >100 mg/L | 73.3 ± 1.20 mg/L (≈ 65 µM) | 50.1 ± 1.3 mg/L (≈ 44.4 µM) | – | – | – | – | – | – | – | – | – | – | – | –
C[C@@H]1[C@H](O)[C@@H](C)/C=C/C=C/C=C/C=C/C=C/C=C/C=C/[C@H](O[C@@H]2O[C@H](C)[C@@H](O)[C@H](NC(=S)NCCN3CCOCC3)[C@@H]2O)C[C@@H]2O[C@](O)(C[C@@H](O)C[C@@H](O)[C@H](O)CC[C@@H](O)C[C@@H](O)CC(=O)O[C@H]1C)C[C@H](O)[C@H]2C(=O)O [Compound A24, N-{[3-(2-morpholin-1-yl)ethyl]thioureidyl}amphotericin B] | >100 mg/L | >100 mg/L | 80.9 ± 2.3 mg/L (≈ 73.8 µM) | >100 µg/mL | 2 mg/L | 2 mg/L | 4 mg/L | 2 mg/L | 1.13 mg/L | 2 mg/L | 4 mg/L | – | – | – | –
CCN(CC)CCNC(=S)N[C@@H]1[C@H](O)[C@H](O[C@H]2/C=C/C=C/C=C/C=C/C=C/C=C/C=C/[C@H](C)[C@@H](O)[C@@H](C)[C@H](C)OC(=O)C[C@H](O)C[C@H](O)CC[C@@H](O)[C@H](O)C[C@H](O)C[C@]3(O)C[C@H](O)[C@@H](C(=O)O)[C@H](C2)O3)O[C@H](C)[C@H]1O [Compound A25, N-{3-[2-(N,N-diethylamino)ethyl]thioureidyl}amphotericin B] | >100 mg/L | >100 mg/L | >100 mg/L | >100 µg/mL | 2 mg/L | 2 mg/L | 4 mg/L | 2 mg/L | 0.85 mg/L | 2 mg/L | 4 mg/L | – | – | – | –
C[C@@H]1[C@H](O)[C@@H](C)/C=C/C=C/C=C/C=C/C=C/C=C/C=C/[C@H](O[C@@H]2O[C@H](C)[C@@H](O)[C@H](NC(=S)NCCN3CCCC3)[C@@H]2O)C[C@@H]2O[C@](O)(C[C@@H](O)C[C@@H](O)[C@H](O)CC[C@@H](O)C[C@@H](O)CC(=O)O[C@H]1C)C[C@H](O)[C@H]2C(=O)O [Compound A27, N-{[3-(2-pyrrolidin-1-yl)ethyl]thioureidyl}amphotericin B] | >100 mg/L | >100 mg/L | >100 mg/L | >100 µg/mL | 2 mg/L | 2 mg/L | 4 mg/L | 2 mg/L | 0.75 mg/L | 2 mg/L | 4 mg/L | – | – | – | –
C[C@@H]1[C@H](O)[C@@H](C)/C=C/C=C/C=C/C=C/C=C/C=C/C=C/[C@H](O[C@@H]2O[C@H](C)[C@@H](O)[C@H](NC(=S)NCCN(C)C)[C@@H]2O)C[C@@H]2O[C@](O)(C[C@@H](O)C[C@@H](O)[C@H](O)CC[C@@H](O)C[C@@H](O)CC(=O)O[C@H]1C)C[C@H](O)[C@H]2C(=O)O [Compound A28, N-{3-[2-(N,N-dimethylamino)ethyl]thioureidyl}amphotericin B] | >100 mg/L | >100 mg/L | >100 mg/L | 81.73 µg/mL | 1 mg/L | 1 mg/L | 2 mg/L | 1 mg/L | 0.50 mg/L | 1 mg/L | 4 mg/L | – | – | – | –
C[C@@H]1[C@H](O)[C@@H](C)/C=C/C=C/C=C/C=C/C=C/C=C/C=C/[C@H](O[C@@H]2O[C@H](C)[C@@H](O)[C@H](NC(=O)[C@H](N)CC(=O)OC(C)(C)C)[C@@H]2O)C[C@@H]2O[C@](O)(C[C@@H](O)C[C@@H](O)[C@H](O)CC[C@@H](O)C[C@@H](O)CC(=O)O[C@H]1C)C[C@H](O)[C@H]2C(=O)O [Compound A35, N-D-(O^β-tert-butyl)asparagylamphotericin B] | – | – | – | – | 2 mg/L | 4 mg/L | 4 mg/L | 4 mg/L | 1.40 mg/L | 4 mg/L | 4 mg/L | >100 µg/mL | 70.7 ± 2.3 mg/L (≈ 64.5 µM) | >100 mg/L | >100 mg/L
